Data taken from publication PMC8327158, “PEGylated AdipoRon derivatives improve glucose and lipid metabolism under insulinopenic and high-fat diet conditions” (Journal of Lipid Research, 2021).
“And” between values parts separate entries of the source, which are not always exact repeats. Equal entries are not always repeated.

Tests used:
HFD-fed wild-type mice = experiment: Food intake, body weight, ITT and OGTT in mice on HFD for 7 months; format: in vivo, mouse; conditions: HFD 7 months, 5 mg/kg twice a day for 5 days
Protocol: For oral glucose tolerance test (OGTT), mice were fasted for 4–6 h and subjected to an oral gavage of dextrose (2 mg/g body weight). Tail blood was collected at 0, 15, 30, 60, and 120 min and prepared for serum and assayed for glucose and insulin. For insulin tolerance test (ITT), insulin (0.75 U/kg Humulin R; Eli Lilly, Indianapolis, IN) was administered under fed condition. Serum glucose level was measured at 0, 15, 30, 60, and 90 min time point. Triglyceride tolerance test (TGTT) was initiated by oral gavage of 20% Intralipid (10 μl/g BDW, l141-100 ml, Sigma), and serum was collected at 0, 1, 1.5, 3, and 6 h for triglyceride assay. Glucose, insulin, and triacylglyceride levels were measured using an oxidase-peroxidase assay (Sigma P7119), insulin ELISA (Crystal Chem, Elk Grove village, IL, #15596018), and Infinity Triglycerides Reagent (Thermo Fisher Scientific TR22421).
Six-week-old wild-type male mice were fed HFD for 4 weeks or 7 months In total, 5 mg/Kg of PBS, Adiporon, AdipoRonPEG5, AdipoRonPEG6HTL were injected twice a day for 5 days. After 5 days of treatment, systemic test is performed, and serum (Before and after treatment), subcutaneous, epididymal, liver, heart samples were harvested for qPCR and sphingolipid analysis.

INS-1 cells = experiment: Ceramide and dihydroceramide levels in PA-stressed INS-1 cells by mass spectrometry; format: cell-based, rat; conditions: 24 h, PA 0.25 mM; for Ceramides 14:0 / Ceramides 16:0 / Ceramides 18:0 / Ceramides 18:1 / Ceramides 20:0 / Ceramides 22:0 / Ceramides 24:0 / Ceramides 24:1 / Ceramides 26:0 / Ceramides 26:1 / Dihydroceramides 16:0 / Dihydroceramides 18:0 / Dihydroceramides 20:0 / Dihydroceramides 22:0 / Dihydroceramides 24:0 / Dihydroceramides 24:1: INS1 cells, three replicates
Protocol: INS-1 cells were seeded at 2 × 10^6/well in a 6-well plate. Cells were treated as follows for 24 h: (i) Control: No FBS or PA (0.25 mM); (ii) Positive Control: 10% FBS + PA (0.25 mM); (iii) Adiponectin (10 nM) + PA (0.25 mM); (iv) AdipoRonPEG6HTL (10 nM) + PA (0.25 mM); (v) AdipoRonPEG6HTL (1 μM) + PA (0.25 mM); (vi) AdipoRonPEG5 (1 μM) + PA (0.25 mM); (vii) AdipoRonPEG5 (20 μM) + PA (0.25 mM). Thereafter, treatment was aspirated, and the cells were washed with cold PBS x 2, scraped off with 1–2 ml PBS, and spun down at 2,500 rpm for 5 min. The supernatant was aspirated, and the pallet was stored at […] for sphingolipid analysis.
Flash-frozen tissue samples (~40 mg) in a borosilicate glass tube were quenched with 2.0 ml of organic extraction solvent (isopropanol: ethyl acetate, 15:85; v:v) and homogenized with a mechanical tissue disruptor. Immediately afterward, 20 μl of organic internal standard solution was added (Ceramide/Sphingoid Internal Standard Mixture II diluted 1:10 in ethanol). The mixture was vortexed for 20 s and sonicated in ultrasonic bath for 40 min at 40°C. The organic extract was allowed to reach room temperature, and 1.5 ml of HPLC water was added and a two-phase liquid-liquid extraction was performed. The upper phase was transferred to a new clean tube, and the lower aqueous phase containing the protein pellet was re-extracted with additional 2.0 ml of organic extraction solvent. The organic phases were combined and dried under nitrogen stream at 40°C. Dried extracts were stored at –80°C until analysis. For analysis of ceramides and sphingoid base species, the dried residues were reconstituted in 200 μl of methanol. Sphingomyelins required a sample dilution of 1:50 in methanol prior to analysis. Serum sphingolipids were extracted using a similar methodology requiring 25 μl of serum.
In total, 5 μl of reconstituted samples was injected into an LC/MS/MS system for the analysis of ceramides and sphingoid bases, and 1 μl injection was required for the analysis of sphingomyelins. The system consisted of a Shimadzu LCMS-8050 triple-quadrupole mass spectrometer with the dual ion source operating in electrospray positive ionization mode. The mass spectrometer is coupled to a Shimadzu Nexera X2 UHPLC system equipped with three solvent delivery modules LC-30AD, three degassing units DGU-20A5R, an autosampler SIL-30ACMP, and a column oven CTO-20AC operating at 40°C (Shimadzu Scientific Instruments, Columbia, MD). Six sphingoid bases (d18:1 sphingosine, d18:1 sphingosine-1-phosphate, d18:1 deoxysphingosine, d18:0 sphinganine, d18:0 sphinganine-1-phosphate, d18:0 deoxysphinganine) and […] ceramide species and their metabolites (C16:0, C16:0 dihydroceramide, C16:0 glucosylceramide, C16:0 lactosylceramide, C16:0 sphingomyelin, C18:0, C18:0 dihydroceramide, C18:0 glucosylceramide, C18:0 sphingomyelin, C18:1, C20:0, C22:0, C22:0 glucosylceramide, C24:0, C24:0 dihydroceramide, C24:0 lactosylceramide, C24:0 sphingomyelin, C24:1, C24:1 dihydroceramide, C24:1 glucosylceramide, C24:1 sphingomyelin). Quantitative analysis of sphingolipids was achieved using selective reaction monitoring scan mode. Lipid separation was achieved by reverse phase LC on a 2.1 (i.d.) × 150 mm Ascentis Express C8, 2.7 micron (Supelco, Bellefonte, PA) column under gradient elution, using three different mobile phases: eluent A consisting of methanol/water/formic acid, 600/400/0.8, v/v/v with 5 mM ammonium formate, eluent B consisting of methanol/formic acid, 1,000/0.8, v/v with 5 mM ammonium formate, and eluent C consisting of CH3OH/CH2Cl2 350/650. The concentration of each metabolite was determined according to calibration curves using the peak-area ratio of analyte versus corresponding internal standard. Calibration curves were generated using serial dilutions of each target analyte.

[1] = parameters: method as in PMID 24172895; conditions: oral administration at 50 mg kg−1 body weight; cited from earlier work

## O=C(COc1ccc(C(=O)c2ccccc2)cc1)NC1CCN(Cc2ccc(OCCOCCOCCOCCOCCO)cc2)CC1 [AdipoRonPEG5]
HFD-fed wild-type mice
  blood glucose levels in ITT: significant reduction
  blood glucose levels in OGTT: not altered
  blood insulin levels in OGTT: reduction of blood insulin levels
  food intake or body weight: no significant impact
INS-1 cells; 1 μM
  C22:0 and C24:0 ceramides: significantly reduced
  Ceramides 14:0: 11.37 pg/mg and 8.34 pg/mg and 8.44 pg/mg
  Ceramides 16:0: 132.31 pg/mg and 60.25 pg/mg and 97.74 pg/mg
  Ceramides 18:0: 285.84 pg/mg and 108.83 pg/mg and 172.70 pg/mg
  Ceramides 18:1: 2.60 pg/mg and 1.60 pg/mg and 2.34 pg/mg
  Ceramides 20:0: 81.47 pg/mg and 94.91 pg/mg and 71.51 pg/mg
  Ceramides 22:0: 502.13 pg/mg and 501.01 pg/mg and 352.24 pg/mg
  Ceramides 24:0: 985.21 pg/mg and 942.22 pg/mg and 715.38 pg/mg
  Ceramides 24:1: 415.25 pg/mg and 405.60 pg/mg and 306.31 pg/mg
  Ceramides 26:0: 13.63 pg/mg and 11.39 pg/mg and 10.09 pg/mg
  Ceramides 26:1: 4.83 pg/mg and 4.31 pg/mg and 3.39 pg/mg
  Dihydroceramides 16:0: 20.35 pg/mg and 15.35 pg/mg and 22.55 pg/mg
  Dihydroceramides 18:0: 114.43 pg/mg and 74.94 pg/mg and 73.63 pg/mg
  Dihydroceramides 20:0: 37.94 pg/mg and 40.41 pg/mg and 33.11 pg/mg
  Dihydroceramides 22:0: 124.23 pg/mg and 124.34 pg/mg and 96.61 pg/mg
  Dihydroceramides 24:0: 149.67 pg/mg and 168.38 pg/mg and 120.04 pg/mg
  Dihydroceramides 24:1: 47.95 pg/mg and 51.21 pg/mg and 34.41 pg/mg
INS-1 cells
  overall dihydroceramide and ceramides levels: markedly lowered
INS-1 cells; 20 μM
  Ceramides 14:0: 13.47 pg/mg and 7.61 pg/mg and 10.59 pg/mg
  Ceramides 16:0: 264.29 pg/mg and 93.09 pg/mg and 72.49 pg/mg
  Ceramides 18:0: 442.08 pg/mg and 170.74 pg/mg and 152.01 pg/mg
  Ceramides 18:1: 3.76 pg/mg and 2.21 pg/mg and 1.71 pg/mg
  Ceramides 20:0: 86.19 pg/mg and 75.99 pg/mg and 78.87 pg/mg
  Ceramides 22:0: 345.37 pg/mg and 441.95 pg/mg and 372.15 pg/mg
  Ceramides 24:0: 827.24 pg/mg and 951.19 pg/mg and 835.47 pg/mg
  Ceramides 24:1: 377.12 pg/mg and 400.62 pg/mg and 388.65 pg/mg
  Ceramides 26:0: 9.40 pg/mg and 10.66 pg/mg and 9.87 pg/mg
  Ceramides 26:1: 3.59 pg/mg and 4.43 pg/mg and 3.78 pg/mg
  Dihydroceramides 16:0: 24.81 pg/mg and 12.98 pg/mg and 10.56 pg/mg
  Dihydroceramides 18:0: 94.22 pg/mg and 32.83 pg/mg and 48.23 pg/mg
  Dihydroceramides 20:0: 22.59 pg/mg and 15.72 pg/mg and 18.47 pg/mg
  Dihydroceramides 22:0: 48.91 pg/mg and 46.89 pg/mg and 48.41 pg/mg
  Dihydroceramides 24:0: 58.93 pg/mg and 62.29 pg/mg and 62.49 pg/mg
  Dihydroceramides 24:1: 21.44 pg/mg and 23.79 pg/mg and 23.03 pg/mg

## O=C(COc1ccc(C(=O)c2ccccc2)cc1)NC1CCN(Cc2ccccc2)CC1 [AdipoRon]
[1]
  maximal plasma concentration: 11.8 µM
